Assay [1] deals with Pseudomonas aeruginosa. The assay can be described thus: Antibacterial activity against Pseudomonas aeruginosa PAO1 in ABTGC medium assessed as bacterial growth inhibition incubated for 16 hrs. Format: functional.
In assay [2] the test system is Pseudomonas aeruginosa. Briefly: Antibiofilm activity against Pseudomonas aeruginosa PAO1 in ABTGC medium assessed as inhibition of biofilm formation incubated for 24 hrs by crystal violet staining based absorbance assay. Format: functional, organism-based. Conditions: PAO1, 24 h.
The subject of assay [3] is Pseudomonas aeruginosa. The assay can be described thus: Inhibition of iron homeostasis in Pseudomonas aeruginosa PAO1 in ABTGC medium assessed as decrease in iron level at 1.25 to 20 uM in presence of FeCl3 by fluorescence based microplate reader analysis (Rvb= 9.6+/-2.00 microM). The following applies: dose 1.25-20 µM. Format: functional.
Assay [4] is described as follows: Metal chelating activity assessed as Fe3+-compound complex formation assessed as pFe(III) value by fluorescence method.

The term MIC denotes the least concentration at which growth counts as inhibited. Usually IC50 stands for the point on the concentration scale where inhibition reaches its midpoint.

Consider `CCCCCCCOc1cc(=O)oc2ccc(C)cc12`, for which, in assay [1], the MIC is above 256 µM. Besides, the IC50 in assay [2] was above 100 µM.

As for `O=C(CCCCCOc1cc(=O)oc2ccc(F)cc12)NO`, in assay [1], the MIC was above 256 µM. Moreover, the IC50 in assay [2] stood at 58.6 µM.

For the compound `COc1ccc2c(OCCCCCC(=O)NO)cc(=O)oc2c1`, the MIC in assay [1] was above 256 µM. In assay [2], the 50% inhibitory concentration (IC50) came out at 9.37 µM.

With `O=C(CCCCCCOc1cc(=O)oc2ccc(Cl)cc12)NO`, the MIC in assay [1] is above 256 µM. In assay [2], the IC50 is above 100 µM.

On to `Cc1c(O)c(=O)ccn1C` [DEFERIPRONE], for which, in assay [3], the Activity stood at 7.74 µM. Also, the pFe(III) in assay [4] was 20.1.

Consider `O=C(CCCOc1cc(=O)oc2ccccc12)NO`, for which, in assay [1], the MIC is above 256 µM. Moreover, the IC50 in assay [2] was 88.4 µM.

Turning to `O=C(CCCCCOc1cc(=O)oc2ccccc12)NO`, the MIC in assay [1] was above 256 µM. Besides, the IC50 in assay [2] amounted to 69.7 µM.

Turning to `Cc1ccc2oc(=O)cc(OCCCCCC(=O)NO)c2c1`, the MIC in assay [1] was above 256 µM. Further, in assay [2], the half-inhibitory concentration (IC50) came out at 12.3 µM.

Regarding `CCCCCCCCOc1cc(=O)oc2ccc(C)cc12`, in assay [1], the MIC was above 256 µM. Also, the IC50 in assay [2] is above 100 µM.

Take `Cc1ccc2c(OCCCCCCC(=O)NO)cc(=O)oc2c1`: in assay [1], the MIC was above 256 µM. Moreover, in assay [2], the IC50 was above 100 µM.

With `O=C(CCCOc1cc(=O)oc2ccc(Br)cc12)NO`, the MIC in assay [1] was above 256 µM. Besides, the IC50 in assay [2] is 70 µM.

Consider `Cc1ccc(OCCCCCCC(=O)NO)cc1`, for which the MIC in assay [1] was above 256 µM. In addition, the IC50 in assay [2] was above 100 µM.

For the compound `O=C(CCCOc1cc(=O)oc2ccc(Cl)cc12)NO`, the MIC in assay [1] was above 256 µM. Further, the IC50 in assay [2] was above 100 µM.

Regarding `Cc1ccccc1OCCCCCCC(=O)NO`, in assay [1], the MIC is above 256 µM. In addition, in assay [2], the IC50 was above 100 µM.

With `Cc1ccc2oc(=O)cc(NCCCCC(=O)NO)c2c1`, the MIC in assay [1] was above 256 µM. Further, in assay [2], the IC50 is above 100 µM.

Turning to `Cc1ccc2oc(=O)cc(OCCCCC(=O)NO)c2c1`, the MIC in assay [1] is above 256 µM. In addition, the IC50 in assay [2] is 12.8 µM.

Consider `O=C(CCCCCOc1cc(=O)oc2cc(Cl)ccc12)NO`, for which, in assay [1], the MIC is above 256 µM. The IC50 in assay [2] is above 100 µM.

Take `Cc1ccc2oc(=O)cc(OCCCC(=O)NO)c2c1`: the MIC in assay [1] is above 256 µM. Besides, in assay [2], the IC50 was found to be 77.4 µM.

Turning to `COc1ccc2oc(=O)cc(OCCCC(=O)NO)c2c1`, the MIC in assay [1] was above 256 µM. Besides, the IC50 in assay [2] was above 100 µM.

As for `O=C(CCCCCCOc1cc(=O)oc2ccccc12)NO`, in assay [1], the MIC was above 256 µM. Also, in assay [2], the IC50 worked out at 69.2 µM.

Turning to `O=C(CCCCOc1cc(=O)oc2ccc(F)cc12)NO`, in assay [1], the MIC was above 256 µM. The IC50 in assay [2] is 9.8 µM.

Regarding `Cc1cccc(OCCCCCCC(=O)NO)c1`, in assay [1], the MIC was above 256 µM. In assay [2], the IC50 is above 100 µM.

On to `COc1ccc2c(OCCCCCCC(=O)NO)cc(=O)oc2c1`, for which the MIC in assay [1] is above 256 µM. Also, the IC50 in assay [2] is 4.74 µM.

With `COc1ccc2oc(=O)cc(OCCCCCC(=O)NO)c2c1`, the MIC in assay [1] is above 256 µM. Moreover, in assay [2], the IC50 is above 100 µM.

Turning to `Cc1ccc2oc(=O)cc(OCCCCCCCC(=O)NO)c2c1`, in assay [1], the MIC is above 256 µM. For the same compound, in assay [2], the IC50 was above 100 µM.

With `O=C(CCCCCCOc1cc(=O)oc2cc(Cl)ccc12)NO`, the MIC in assay [1] is above 256 µM. In assay [2], the IC50 was above 100 µM.

As to `CCCCCCOc1cc(=O)oc2ccc(C)cc12`, in assay [1], the minimum inhibitory concentration (MIC) was above 256 µM. Besides, the half-inhibitory concentration (IC50) in assay [2] was above 100 µM.

For the origin of these results see ChEMBL document CHEMBL5370649, “Novel Coumarin Derivatives Inhibit the Quorum Sensing System and Iron Homeostasis as Antibacterial Synergists against Pseudomonas aeruginosa” (J Med Chem, 2023).
